Data as given in patent US11564913B2, “Compositions and methods for treating cancer” (Children's Hospital Medical Center, priority 2019, dated 2023).

What was measured:
[1] = tested on: murine p190-BCR-ABL leukemic progenitor cells (EGFP+/B220dim); experiment: Cell cycle analysis, BrdU incorporation and flow cytometry; format: cell-based; conditions: for percentage of cells in the G2+M phases: 20 h (SD, N=3)
Description: FIG. 13: IODVA1 decreases Rac activation and signaling. (A) Ba/F3 cells expressing p190-BCR-ABL1 were treated with IODVA1 (3 μM) as indicated and levels of active Rac (Rac-GTP) were assessed by pull-down using GST-PAK-GBD, followed by immunoblotting (upper panel) and densitometric quantification (lower panel). (B) Flow-cytometry analysis of pJNK, pS6, p4EBP, pPAK1, and pAKT of Ba/F3 cells expressing Mieg3 empty vector (light and dark blue) or p190-BCR-ABL1 (light and dark salmon) and treated with vehicle control or IODVA1 (3 μM) for 30 min. (C) Representative histogram data of the cell cycle analysis of Ba/F3 cells expressing p190-BCR-ABL and treated with vehicle control or IODVA1 (1, 3, and 10 μM) for 20 h. (D) Quantification of the average number of colonies of bone marrow wild-type (black) and Rac1^Δ/Δ+Rac2^−/− (red) p190-BCR-ABL1 leukemic cells treated with vehicle control or IODVA1 (IO1, 1 μM). ns—not significant, * p<0.05, ** p<0.01, *** p<0.001. (E) As in FIG. 13A, but cells were incubated for a fixed amount of time (1 h) at the indicated IODVA1 concentrations. (F) Ba/F3 cells expressing p190-BCR-ABL1 were treated with IODVA1 (3 μM) and lysed at the indicated times. Cell lysates were separated on SDS-PAGE and immunoblotted for pPAK(T423), pBAD(S136), and BAD. (G) Ba/F3 cells expressing p190-BCR-ABL1 were treated with IODVA1 (3 μM) and levels of active Cdc42 (Cdc42-GTP) and Rho (Rho-GTP) were assessed by pull-down at the indicated times using GST-PAK-GBD and GST-Rhotekin respectively, followed by immunoblotting (left panel) and densitometric quantification (right panel). (H) Morphology of GFP^+ leukemic colonies (left panel). Western blot analysis of Rac1 and Rac2 protein expression in Rac1^Δ/Δ+Rac2^−/− cells post poly-I:C injections (right panel). (I) Intrinsic (blue line) and p50GAP-stimulated GTP-hydrolysis reaction in the presence (red line) or absence (black line) of IODVA1. (J) Sedimentation assay of liposomal Rac1-GDP in the presence of IODVA1 (2 μM). Rac1 was visualized by immunoblotting from pellet (p) and soluble (s) fractions. (K) Stopped-flow measurement of GDI (10 μM) interaction with fluorescently-labelled Rac1 in the absence (black line) or presence (orange line) of IODVA1.
To further test this hypothesis, we analyzed the cell cycle of murine p190-BCR-ABL leukemic progenitor cells (EGFP^+/B220^dim) incubated with vehicle control or IODVA1 (1-10 μM) for 20 h, followed by in vitro BrdU incorporation and flow cytometry analysis (FIG. 13C). […] It increased the percentage of cells in the G2+M phases from 7±1% (SD, N=3) in the presence of vehicle control to 22±6.6, 32±3, and 36±7% (SD, N=3) at 1, 3, and 10 μM, respectively. At 1 μM, it reduced the S-phase 8-fold (p=0.0002) and increased apoptosis by at least 5.3-times (p=0.007). Therefore, IODVA1 induces a G2/M arrest.
Cell cycle was analyzed by using in vitro incorporation of 5-Bromo-2-deoxyuridine using Brdu Flow kit (BD Pharmingen, Cat #552598). Briefly, mice leukemic progenitors were incubated with […] BrdU solution for 45 minutes, cells were further fixed and permeabilized. DNAse treatment was done according to the instructions and stained with anti BrdU and apoptosis was analyzed by 7-AAD staining through flow cytometry analysis.

[2] = tested on: active GTP-bound Ras in ST8814 cells; experiment: Active Ras pull-down with GST-RafRBD; format: cell-based; conditions: 2 μM
Description: FIG. 4. IODVA1 inhibits proliferation of cancer model cells. (A) IODVA1 is a potent cell proliferation inhibitor. MCF10A, MCF7, MDA-MB-231, and T47D cells were grown in the presence of the indicated IODVA1 concentrations and counted for 4 or up to 7 days. Each dot and bar is the mean±stdev respectively, of 3 independent experiments, with 2 technical replicates in each experiment. (B) Number of colonies made by MCF7, T47D, and MDA-MB-231 cells at the indicated IODVA1 concentrations. Results shown are mean±stdev of 2 independent experiments with 4 technical replicates each. (C) IODVA1 deactivates Ras at late incubation times. […] Quantification summary of 2 independent experiments is presented in the graph. n.s.—not significant, *-p<0.05, **-p<0.01, ****-p<0.0001. (D) IODVA1 inhibits proliferation of ST8814 cells. ST8814 cells were grown in the presence of the indicated IODVA1 concentrations and counted daily for 4 days. Each dot and bar is the mean and standard deviation respectively, of 3 independent experiments.
To check if IODVA1 inhibits Ras activation in cells, applicants determined the levels of active-GTP-bound-Ras in ST88-14 cells treated with IODVA1 (2 μM) or vehicle control at various time points. GST-RafRBD bound glutathione-beads were incubated with ST8814 cell lysates, thoroughly washed, and the protein complex separated on SDS-PAGE. Levels of GTP-bound pan-RAS proteins bound to RafRBD were determined by immunoblotting.
Levels of active Ras, Rac, Cdc42 and RhoA were determined using the Active Ras Pull-Down and Detection Kit, Active Rac Pull-Down and Detection Kit (Thermo Scientific) and RhoA/Rac1/Cdc4 Pull-down Activation Assay Combo Biochem Kit (Cytoskeleton). Cells were cultured and treated as indicated and lysed in buffer provided by the manufacturer. […] Proteins were resolved by SDS-PAGE, transferred to nitrocellulose and the level of active GTPase relative to input lysate were determined by immunoblotting analysis using the anti-Ras, anti-Rac, anti-Cdc42, or anti-RhoA antibody supplied by the manufacturer.

[3] = tested on: p190-BCR-ABL leukemic propagating cells; experiment: Serial transplantation into secondary recipients (leukemic propagating activity); format: in vivo, mice; conditions: week 5 post transplantation
Description: LDBM cells were transduced with bicistronic p190-BCR-ABL1/EGFP retrovirus and transplanted into recipient mice. After initial assessment of leukemic burden, drugs were delivered in subcutaneously implanted osmotic pumps, each lasting two weeks. (D) Kaplan-Meier survival plot of secondary mice transplants with the 10^6-cell dilution.
(F) Count (%) of residual leukemic (EGFP^+-BCR-ABL1) cells in peripheral blood at weeks 3 and 5 for the secondary transplant mice from FIG. 1D. (G) Kaplan-Meier survival plot of secondary mice transplants with the 0.3×10^6 cell-dilution. (H) Count (%) of residual leukemic (EGFP^+-BCR-ABL1) cells in peripheral blood at weeks 3 and 5 for the secondary transplant mice from (G). (I & J) similar to G & H but with the 0.1×10^6 cell-dilution.

OC1(c2ccccn2)N=C(Nc2nc3ccccc3[nH]2)N=C1c1ccccn1 (stereo not shown) [IODVA1, (Z)-2-((1H-benzo[d]imidazol-2-yl)imino)-4,5-di(pyridin-2-yl)-2,5-dihydro-1H-imidazol-5-ol]
percentage of cells in the G2+M phases ([1]; 1 μM, vehicle 7±1%): 22±6.6% | reduction of the S-phase ([1]; 1 μM, p=0.0002): 8 fold | increase in apoptosis ([1]; 1 μM, p=0.007): at least 5.3 times | percentage of cells in the G2+M phases ([1]; 3 μM): 32±3% | percentage of cells in the G2+M phases ([1]; 10 μM): 36±7% | G0+G1 phase ([1]; 1-10 μM, 20 h): did not affect | levels of active Ras versus vehicle control ([2]; 24 h): similar | levels of active Ras versus vehicle control ([2]; 48 h): decrease in active Ras levels is seen | decrease in active Ras levels ([2]; 72 h): very noticeable | eradication of leukemic cell burden in peripheral blood of secondary transplanted mice [3]: superior to imatinib
